Laboratory results: PubChem BioAssay AID1259407 (Chemical Carcinogenesis Research Information System (CCRIS), 2018)
The source made the active and inactive calls. How the calls were made is not given here.

System: CCRIS mutagenicity, Ames/micronucleus/aberration tests
Experiment: CCRIS mutagenicity studies
Conditions: Test System: AMES SALMONELLA TYPHIMURIUM, Method: PREINCUBATION

## Cl[C@@H]1C2(Cl)C3C4[C@@H]5O[C@@H]5[C@H]5C3[C@@](Cl)(C2(Cl)Cl)[C@]1(Cl)[C@@H]45 (stereo partly drawn)
Strain/Indicator: TA97, Metabolic Activation: HAMSTER, LIVER, S-9, AROCLOR 1254 (10%)
  mutagenic call: inactive; negative
Strain/Indicator: TA97, Metabolic Activation: HAMSTER, LIVER, S-9, AROCLOR 1254 (30%)
  mutagenic call: active; positive
Strain/Indicator: TA97, Metabolic Activation: NONE
  mutagenic call: inactive; negative
Strain/Indicator: TA97, Metabolic Activation: RAT, LIVER, S-9, AROCLOR 1254 (10 OR 30%)
  mutagenic call: inactive; negative
Strain/Indicator: TA98, Metabolic Activation: HAMSTER, LIVER, S-9, AROCLOR 1254 (10 OR 30%)
  mutagenic call: inactive; negative
Strain/Indicator: TA98, Metabolic Activation: NONE
  mutagenic call: inactive; negative
Strain/Indicator: TA98, Metabolic Activation: RAT, LIVER, S-9, AROCLOR 1254 (10 OR 30%)
  mutagenic call: inactive; negative
Strain/Indicator: TA100, Metabolic Activation: HAMSTER, LIVER, S-9, AROCLOR 1254 (10 OR 30%)
  mutagenic call: inactive; negative
Strain/Indicator: TA100, Metabolic Activation: NONE
  mutagenic call: inactive; negative
Strain/Indicator: TA100, Metabolic Activation: RAT, LIVER, S-9, AROCLOR 1254 (10 OR 30%)
  mutagenic call: inactive; negative
Strain/Indicator: TA1535, Metabolic Activation: HAMSTER, LIVER, S-9, AROCLOR 1254 (10 OR 30%)
  mutagenic call: inactive; negative
Strain/Indicator: TA1535, Metabolic Activation: NONE
  mutagenic call: inactive; negative
Strain/Indicator: TA1535, Metabolic Activation: RAT, LIVER, S-9, AROCLOR 1254 (10 OR 30%)
  mutagenic call: inactive; negative
